Data: patent US10173991B2, “Sulfone amide linked benzothiazole inhibitors of endothelial lipase” (BRISTOL-MYERS SQUIBB COMPANY, priority 2014, dated 2019)
Like-named read-outs stand apart in the source and are kept apart here.

Biological target: Endothelial lipase (EL) (Homo sapiens (Human), UniProt Q9Y5X9)
Test: Endothelial lipase (EL) enzymatic assay with fluorescent substrate A10070 in DMPG vesicles
Format: biochemical
Outline: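 Compounds were preincubated with enzyme for 30 min at 37° C before FRET-substrate vesicles (A10070 in DMPG, 0.11 mole fraction) were added. Reaction rates were obtained from the 300–900 sec slope of fluorescence at 490/530 nm.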

Chain of Endothelial lipase (EL) (Q9Y5X9 21-500): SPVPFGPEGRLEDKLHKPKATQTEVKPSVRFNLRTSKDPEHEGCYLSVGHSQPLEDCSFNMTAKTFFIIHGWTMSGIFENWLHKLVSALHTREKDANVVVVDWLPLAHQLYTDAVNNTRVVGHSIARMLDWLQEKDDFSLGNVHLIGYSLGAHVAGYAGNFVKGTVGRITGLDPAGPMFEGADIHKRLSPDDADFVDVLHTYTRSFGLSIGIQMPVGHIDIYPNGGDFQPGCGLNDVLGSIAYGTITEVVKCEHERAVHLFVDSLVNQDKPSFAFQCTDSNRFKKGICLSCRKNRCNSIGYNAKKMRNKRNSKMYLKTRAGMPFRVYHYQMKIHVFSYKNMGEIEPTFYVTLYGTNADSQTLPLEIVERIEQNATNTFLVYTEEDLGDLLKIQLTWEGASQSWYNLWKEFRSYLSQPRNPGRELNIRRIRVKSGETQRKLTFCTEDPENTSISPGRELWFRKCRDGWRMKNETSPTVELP

| SMILES | IC50 | IC50 (EL from conditioned media of HT-1080 cells, 30 min preincubation at 37° C.) |
| --- | --- | --- |
| CC(C)CS(=O)(=O)C(C(=O)NCC(=O)NC1CC1)c1nc2cc(F)c(-c3ccc(NC(=O)OCc4ccccc4)cc3)cc2s1 (centres unmarked) [Example 49, benzyl N-{4-[2-({[(cyclopropyl-carbamoyl)methyl]carbamoyl}(2-methylpropane-sulfonyl)methyl)-5-fluoro-1,3-benzothiazol-6-yl]phenyl}carbamate] | 3 nM |  |
| COCCS(=O)(=O)C(C(=O)NCC(=O)NC1CC1)c1nc2cc(F)c(-c3ccc4c(c3)CCN4C(C)=O)cc2s1 (centres unmarked) [Example 416, 2-[6-(1-acetyl-2,3-dihydro-1H-indol-5-yl)-5-fluoro-1,3-benzothiazol-2-yl]-N-[(cyclopropyl-carbamoyl)methyl]-2-(2-methoxyethane-sulfonyl)acetamide] | 11 nM |  |
| Cc1cc(-c2cc3sc(C(C(=O)NCC(=O)NC4CC4)S(=O)(=O)c4cccc(Cl)c4)nc3cc2F)cnn1 (centres unmarked) [Example 443, 2-(3-chlorobenzene-sulfonyl)-N-[(cyclopropyl-carbamoyl)methyl]-2-[5-fluoro-6-(6-methylpyridazin-4-yl)-1,3-benzothiazol-2-yl}acetamide] | 37 nM |  |
| COCCS(=O)(=O)C(C(=O)NCC(=O)NC1CC1)c1nc2ccc(-c3ccc(F)nc3)cc2s1 (centres unmarked) [Example 376, N-[(Cyclopropylcarbamoyl)methyl]-2-[6-(6-fluoropyridin-3-yl)-1,3-benzothiazol-2-yl]-2-(2-methoxyethanesulfonyl)acetamide] |  | 4 nM |
| COc1nccc(-c2cc3nc(C(C(=O)NCC(=O)NC4CC4)S(C)(=O)=O)sc3cc2F)c1F (centres unmarked) [Example 368, N-[(cyclopropyl-carbamoyl)methyl]-2-[6-fluoro-5-(3-fluoro-2-methoxypyridin-4-yl)-1,3-benzothiazol-2-yl]-2-methanesulfonyl-acetamide] | 17 nM |  |
| COCCS(=O)(=O)C(C(=O)NCC(=O)NC1CC1)c1nc2cc(F)c(-c3ccc(-c4nn[nH]n4)cc3)cc2s1 (centres unmarked) [Example 146, N-[(cyclopropyl-carbamoyl)methyl]-2-{5-fluoro-6-[4-(2H-1,2,3,4-tetrazol-5-yl)phenyl]-1,3-benzothiazol-2-yl}-2-(2-methoxyethane-sulfonyl)acetamide] | 6 nM |  |
| CC(=O)NCc1ccc(-c2ccc3sc(C(C(=O)NCC(=O)NC4CC4)S(=O)(=O)c4ccccc4)nc3c2)cc1 (centres unmarked) [Example 436, 2-(benzenesulfonyl)-N-[(cyclopropyl-carbamoyl)methyl]-2-{5-[4-(acetamidomethyl)phenyl]-1,3-benzothiazol-2-yl} acetamide] | 13 nM |  |
| COCCS(=O)(=O)C(C(=O)NCC(=O)NC1CC1)c1nc2cc(-c3cccc(C(=O)OC(C)(C)C)c3)ccc2s1 (centres unmarked) [Example 134, tert-butyl 3-[2-({[(cyclopropyl-carbamoyl)methyl]carbamoyl}(2-methoxyethane-sulfonyl)methyl)-1,3-benzothiazol-5-yl]benzoate] | 2 nM |  |
| CS(=O)(=O)C(C(=O)NCC(=O)NC1CC1)c1nc2cc(F)c(-c3ccc(NC(=O)OCc4ccccc4)nc3)cc2s1 (centres unmarked) [Example 552, benzyl N-{5-[2-({[(cyclopropyl-carbamoyl)methyl]carbamoyl} (methanesulfonyl)methyl)-5-fluoro-1,3-benzothiazol-6-yl]pyridin-2-yl}carbamate] | 1 nM |  |
| CC(C)c1cc(CNC(=O)c2ccc3sc(C(C(=O)NCC(=O)NC4CC4)S(=O)(=O)Cc4ccc(F)cc4)nc3c2)on1 (centres unmarked) [Example 426, 2-({[(cyclopropyl-carbamoyl)methyl]carbamoyl}(4-fluorophenyl)methanesulfonyl-methyl)-N-{[3-(propan-2-yl)-1,2-oxazol-5-yl]methyl}-1,3-benzothiazole-5-carboxamide] | 62 nM |  |
| CC(C)(O)Cn1cc(-c2ccc3nc(C(C(=O)NCC(=O)NC4CC4)S(C)(=O)=O)sc3c2)cn1 (centres unmarked) [Example 109, N-[(cyclopropyl-carbamoyl)methyl]-2-{6-[1-(2-hydroxy-2-methylpropyl)-1H-pyrazol-4-yl]-1,3-benzothiazol-2-yl}-2-methanesulfonyl-acetamide] | 14 nM |  |
| COCCS(=O)(=O)C(C(=O)NCC(=O)NC1CC1)c1nc2cc(-c3ccc(F)nc3F)ccc2s1 (centres unmarked) [Example 68, N-[(cyclopropyl-carbamoyl)methyl]-2-[5-(2,6-difluoropyridin-3-yl)-1,3-benzothiazol-2-yl]-2-(2-methoxyethane-sulfonyl) acetamide] | 19 nM |  |
| CS(=O)(=O)C(C(=O)NCC(=O)NC1CC1)c1nc2cc(F)c(-c3ccc4[nH]c(=O)ccc4c3)cc2s1 (centres unmarked) [Example 197, N-[(cyclopropyl-carbamoyl)methyl]-2-[5-fluoro-6-(2-oxo-1,2-dihydroquinolin-6-yl)-1,3-benzothiazol-2-yl]-2-methanesulfonyl-acetamide] | 3 nM |  |
| COC(=O)Nc1ccc(-c2cc(Cl)c3nc(C(C(=O)NCC(=O)NC4CC4)S(C)(=O)=O)sc3c2)cc1F (centres unmarked) [Example 124, methyl N-{4-[4-chloro-2-({[(cyclopropyl-carbamoyl)methyl]carbamoyl} (methanesulfonyl)methyl)-1,3-benzothiazol-6-yl]-2-fluorophenyl} carbamate] | 2 nM |  |
